Experimental data: US20250289789A1, “REVERSIBLE LYSINE COVALENT MODIFIERS OF CDK2 AND USES THEREOF” (Terremoto Biosciences, Inc., priority 2023, published 2025)
Read-outs that look alike come from different tables or passages of the source.

What was measured:
Type in all cases: cell-based
[1] = molecular target: T1, CDK2-NanoLuc fusion with CCNE1 in 293T or 293 cells (Homo sapiens, UniProt P24941); assay: NanoBRET Target Engagement (TE) Intracellular Kinase Assay, CDK2/CCNE1; conditions: NanoBRET TE intracellular kinase assay, 2-hour incubation, read-out: NanoBRET-CDK2/E1 IC50
T1 construct: host or cells: 293T (ATCC CRL-3216) or 293 (ATCC CRL-1573)
Procedure: (§1) Inhibitory effects of compounds were measured in NanoBRET TE Intracellular Kinase Assay. […] Cells were co-transfected with 1 μg/mL of CDK-NanoLuc Fusion Vector (Promega; NV2701 for CDK1, NV2781 for CDK2, NV2811 for CDK4, NV2841 for CDK6) and 1 μg/mL of the corresponding Cyclin Expression Vector (Promega; NV2601 for CCNB1, NV2641 for CCNE1, NV2621 for CCND1, NV2631 for CCND3) using FuGENE HD Transfection Reagent (Promega; E2311). […] 20 uL/well of 3× Intracellular TE Nano-Glo Substrate/Inhibitor (Promega; N2162) were added to 384-well plates and incubated for 3 minutes at room temperature. NanoBRET signals (donor emission wavelength at 450 nm, acceptor emission wavelength at 610 nm) were measured using Envision plate reader (PerkinElmer). NanoBRET ratio was calculated by: BRET Ratio=raw signal for acceptor/raw signal for donor. Dose response curve normalized to DMSO control was plotted using four-parameter logistic model for IC50 calculation.

[2] = molecular target: T2, CDK4-NanoLuc fusion with CCND1 in 293T or 293 cells (Homo sapiens, UniProt P11802); assay: NanoBRET Target Engagement (TE) Intracellular Kinase Assay, CDK4/CCND1; conditions: NanoBRET TE intracellular kinase assay, 2-hour incubation, read-out: NanoBRET-CDK4/D1 IC50
T2 construct: host or cells: 293T (ATCC CRL-3216) or 293 (ATCC CRL-1573)
T2 sequence (P11802 whole entry, the tested form may be a part): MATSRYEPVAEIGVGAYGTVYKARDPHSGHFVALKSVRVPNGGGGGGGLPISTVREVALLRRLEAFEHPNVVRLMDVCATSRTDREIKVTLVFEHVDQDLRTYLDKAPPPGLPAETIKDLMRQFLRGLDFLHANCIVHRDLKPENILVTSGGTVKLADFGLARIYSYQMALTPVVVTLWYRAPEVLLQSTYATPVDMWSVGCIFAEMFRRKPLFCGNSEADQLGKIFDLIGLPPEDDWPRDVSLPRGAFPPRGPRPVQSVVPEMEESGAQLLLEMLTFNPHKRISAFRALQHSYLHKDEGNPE
T2 sequence (P24385 whole entry partner, the tested form may be a part): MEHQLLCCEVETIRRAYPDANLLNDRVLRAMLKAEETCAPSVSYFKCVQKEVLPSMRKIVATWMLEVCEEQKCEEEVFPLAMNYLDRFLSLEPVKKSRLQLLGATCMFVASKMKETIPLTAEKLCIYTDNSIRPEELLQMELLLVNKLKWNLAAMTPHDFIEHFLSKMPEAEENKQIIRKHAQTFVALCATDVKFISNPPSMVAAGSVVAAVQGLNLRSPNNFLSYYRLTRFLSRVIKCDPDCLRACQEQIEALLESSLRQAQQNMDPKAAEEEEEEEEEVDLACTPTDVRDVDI
Procedure: as §1

[3] = tested on: Phospho-Rb Ser807/811 in OVCAR3 cells; assay: OVCAR3 Phospho-Rb Ser807/811 HTRF assay; conditions: OVCAR3 cells, Phospho-Rb Ser807/811 HTRF, 1 hour incubation, read-out: pRb-OVCAR3 IC50
Procedure: Cells were trypsinized and resuspended in 1 mM hydroxyurea (Sigma; H8627), 90% RPMI and 10% fetal bovine serum. […] Dose response curve normalized to DMSO control was plotted using four-parameter logistic model for IC50 calculation.

SMILES | IC50 [1] [nM] | IC50 [2] [nM] | IC50 [3] [nM] | IC50 ([3]; Homo sapiens, OVCAR-3, 1 h) [nM]
COc1cc(O)c(C=O)c2c1CC(C(=O)Nc1cc([C@H]3CC[C@@H](OC(=O)N4CCCN4C)C3)[nH]n1)C2 (single isomer, unassigned) [Compound 262, (1R,3S)-3-(3-((*)-4-formyl-5-hydroxy-7-methoxy-2,3-dihydro-1H-indene-2-carboxamido)-1H-pyrazol-5-yl)cyclopentyl 2-methylpyrazolidine-1-carboxylate] | 4.42 | 5080 | 51.8 | 
COc1cc(O)c(C=O)c2c1CC(C(=O)Nc1cc([C@H]3CC[C@@H](OC(=O)N4CCCN4C)C3)[nH]n1)C2 (single isomer, unassigned) [Compound 263, (1R,3S)-3-(3-((*)-4-formyl-5-hydroxy-7-methoxy-2,3-dihydro-1H-indene-2-carboxamido)-1H-pyrazol-5-yl)cyclopentyl 2-methylpyrazolidine-1-carboxylate] | 63.3 | 735 | 7740 | 
COc1cc(O)c(C=O)c2c1CC(C(=O)Nc1cc([C@H]3CC[C@@H](OC(=O)NN(C)CC(F)(F)F)C3)[nH]n1)C2 (single isomer, unassigned) [Compound 264, (1R,3S)-3-(3-((*)-4-formyl-5-hydroxy-7-methoxy-2,3-dihydro-1H-indene-2-carboxamido)-1H-pyrazol-5-yl)cyclopentyl 2-methyl-2-(2,2,2-trifluoroethyl)hydrazine-1-carboxylate] | 5.95 | 512 | 13.6 | 
COc1cc(O)c(C=O)c2c1CC(C(=O)Nc1cc([C@H]3CC[C@@H](OC(=O)NN(C)CC(F)(F)F)C3)[nH]n1)C2 (single isomer, unassigned) [Compound 265, (1R,3S)-3-(3-((*)-4-formyl-5-hydroxy-7-methoxy-2,3-dihydro-1H-indene-2-carboxamido)-1H-pyrazol-5-yl)cyclopentyl 2-methyl-2-(2,2,2-trifluoroethyl)hydrazine-1-carboxylate] | 15.5 | 132 | 567 | 
COc1cc(O)c(C=O)c2c1CC(C(=O)Nc1cc([C@H]3CC[C@@H](OC(=O)N4CCCCN4C)C3)[nH]n1)C2 (single isomer, unassigned) [Compound 266, (1R,3S)-3-(3-((*)-4-formyl-5-hydroxy-7-methoxy-2,3-dihydro-1H-indene-2-carboxamido)-1H-pyrazol-5-yl)cyclopentyl 2-methyltetrahydropyridazine-1(2H)-carboxylate] | 1.99 | 1980 | 123 | 
COc1cc(O)c(C=O)c2c1CC(C(=O)Nc1cc([C@H]3CC[C@@H](OC(=O)N4CCCCN4C)C3)[nH]n1)C2 (single isomer, unassigned) [Compound 267, (1R,3S)-3-(3-((*)-4-formyl-5-hydroxy-7-methoxy-2,3-dihydro-1H-indene-2-carboxamido)-1H-pyrazol-5-yl)cyclopentyl 2-methyltetrahydropyridazine-1(2H)-carboxylate] | 21.8 | 266 | 5230 | 
COc1cc(O)c(C=O)c2c1CC(C(=O)Nc1cc([C@H]3CC[C@@H](OC(=O)NN(C)C)C3)n[nH]1)C2 (single isomer, unassigned) [Compound 268, (1R,3S)-3-(3-((*)-4-formyl-5-hydroxy-7-methoxy-2,3-dihydro-1H-indene-2-carboxamido)-1H-pyrazol-5-yl)cyclopentyl 2,2-dimethylhydrazine-1-carboxylate] | 10.8 | 4940 | 85.9 | 
COc1cc(O)c(C=O)c2c1CC(C(=O)Nc1cc([C@H]3CC[C@@H](OC(=O)NN(C)C)C3)n[nH]1)C2 (single isomer, unassigned) [Compound 269, (1R,3S)-3-(3-((*)-4-formyl-5-hydroxy-7-methoxy-2,3-dihydro-1H-indene-2-carboxamido)-1H-pyrazol-5-yl)cyclopentyl 2,2-dimethylhydrazine-1-carboxylate] | 67.7 | 459 | 2230 | 
COc1cc(O)c(C=O)c2c1CC(C(=O)Nc1cc([C@H]3C[C@@H](OC(=O)N(C)N(C)C)C3)n[nH]1)C2 (single isomer, unassigned) [Compound 270] | 6.25 | > 10000 | 48.6 | 
COc1cc(O)c(C=O)c2c1CC(C(=O)Nc1cc([C@H]3C[C@@H](OC(=O)N(C)N(C)C)C3)n[nH]1)C2 (single isomer, unassigned) [Compound 271] | 240 | 3250 | > 10000 | 
COc1cc(O)c(C=O)c(OCC(=O)Nc2cc([C@H]3CC[C@@H](OC(=O)NC4(C)CC4(F)F)C3)[nH]n2)c1 (single isomer, unassigned) [Compound 280, (1R,3S)-3-(3-(2-(2-formyl-3-hydroxy-5-methoxyphenoxy)acetamido)-1H-pyrazol-5-yl)cyclopentyl ((*)-2,2-difluoro-1-methylcyclopropyl)carbamate] | 3.88 | 576 |  | 17.4
COc1cc(O)c(C=O)c(OCC(=O)Nc2cc([C@H]3CC[C@@H](OC(=O)NC4(C)CC4(F)F)C3)[nH]n2)c1 (single isomer, unassigned) [Compound 281, (1R,3S)-3-(3-(2-(2-formyl-3-hydroxy-5-methoxyphenoxy)acetamido)-1H-pyrazol-5-yl)cyclopentyl ((*)-2,2-difluoro-1-methylcyclopropyl)carbamate] | 4.85 | 1200 | 27.3 | 
COc1cc(O)c(C=O)c2c1CC(C(=O)Nc1cc([C@H]3C[C@@H](OC(=O)NC(C)C)C3)[nH]n1)C2 (single isomer, unassigned) [Compound 282, (1R,3s)-3-(3-((*)-4-formyl-5-hydroxy-7-methoxy-2,3-dihydro-1H-indene-2-carboxamido)-1H-pyrazol-5-yl)cyclobutyl isopropylcarbamate] | 5.3 | 3350 |  | 20.4
COc1cc(O)c(C=O)c2c1CC(C(=O)Nc1cc([C@H]3CC[C@@H](OC(=O)NC(C)(C)C)C3)[nH]n1)C2 (single isomer, unassigned) [Compound 283, (1R,3S)-3-(3-((*)-4-formyl-5-hydroxy-7-methoxy-2,3-dihydro-1H-indene-2-carboxamido)-1H-pyrazol-5-yl)cyclopentyl tert-butylcarbamate] | 2.01 | 236 |  | 12.6
COc1cc(O)c(C=O)c2c1CC(C(=O)Nc1cc([C@H]3CC[C@@H](OC(=O)N(C)N(C)C)C3)n[nH]1)C2 (single isomer, unassigned) [Compound 284, (1R,3S)-3-(3-((*)-4-formyl-5-hydroxy-7-methoxy-2,3-dihydro-1H-indene-2-carboxamido)-1H-pyrazol-5-yl)cyclopentyl 1,2,2-trimethylhydrazine-1-carboxylate] | 1.85 | 2850 |  | 29.2
COc1cc(O)c(C=O)c(OCC(=O)Nc2cc([C@H]3CC[C@@H](OC(=O)N4CC[C@H]4C#N)C3)[nH]n2)c1 (stereo in doubt) [Compound 126] | 9.62 | 7310 |  | 75.7
CCOc1cc(O)c(C=O)c(OCC(=O)Nc2cc([C@H]3CC[C@@H](OC(=O)NC4(C)CC4)C3)[nH]n2)c1 [Compound 115] | 1.94 | 1240 |  | 16.3
COc1cc(O)c(C=O)c(OCC(=O)Nc2cc([C@H]3CC[C@@H](OC(=O)NCCOC(F)F)C3)n[nH]2)c1 [Compound 116] | 4.5 | 4360 |  | 32.3
COc1cc(O)c(C=O)c(OCC(=O)Nc2cc([C@H]3CC[C@@H](OC(=O)NCCOC(F)(F)F)C3)n[nH]2)c1 [Compound 117] | 2.19 | 8090 |  | 22
COc1cc(O)c(C=O)c(OCC(=O)Nc2cc([C@H]3CC[C@@H](OC(=O)N4C[C@H]5C[C@@H]4CS5(=O)=O)C3)n[nH]2)c1 [Compound 118] | 55.4 | 6480 |  | 101
COc1cc(O)c(C=O)c(OCC(=O)Nc2cc([C@H]3CC[C@@H](OC(=O)N[C@H](C)CC(F)F)C3)[nH]n2)c1 [Compound 119] | 2.31 | 7860 |  | 26.4
COc1cc(O)c(C=O)c(OCC(=O)Nc2cc([C@H]3CC[C@@H](OC(=O)N[C@@H](C)CF)C3)[nH]n2)c1 [Compound 120] | 2.64 | 2970 |  | 13.4
COc1cc(O)c(C=O)c(OCC(=O)Nc2cc([C@H]3CC[C@@H](OC(=O)N(C)CC(F)F)C3)[nH]n2)c1 [Compound 121] | 1.99 | 2440 |  | 18.5
COc1cc(O)c(C=O)c(OCC(=O)Nc2cc([C@H]3CC[C@@H](OC(=O)N4C[C@H](F)[C@@H]4C)C3)[nH]n2)c1 [Compound 122] | 1.99 | 1310 |  | 20.9
